Assay results as given in patent US20200407712A1, “ARRAY-BASED CYCLIC PEPTIDE LIBRARIES” (HealthTell Inc., priority 2018, published 2020).

What was measured:
[1] = target: T1, human diaphorase (NQO1) (Homo sapiens, UniProt P15559); assay: Alexa Fluor 555-diaphorase binding to linear and lactam constrained peptide microarrays; conditions: 10.0 nM protein applied to the array; for Diaphorase Lactam, log 10 transformed median intensity: lactam constrained library peptide; for Diaphorase Linear, log 10 transformed median intensity: linear library peptide
T1 construct: purchased SigmaAldrich
Source text: (§1) Diaphorase is NAD(P)H dehydrogenase (UniProtKB: P15559) encoded by the NQO1 gene. Diaphorase has utility as a model enzyme; for which peptide based synthetic affinity agents to diaphorase are required. A 3.3 million feature peptide array was used to identify potential binding partner peptides for diaphorase. Ferredoxin NADP+ Reductase (FNR) and Ferredoxin are included as counter screens for a specific application, while immunoglobulin depleted human serum (Non-Immunoglobulin Serum Components or NISC) was used as a complex mixture to control for generally sticky peptides.
Two wafers from the same synthesis batch were obtained where one wafer was prepared with the lactam chemistry and constrained into a cyclized form. The degree of cyclization was confirmed using the biotinylation assay described in Examples 9, 17, and 19.
(§2) Peptide arrays were prepared for protein binding by pretreating the arrays in PBST for 30 min at […]. Direct labeled diaphorase (Alexa Fluor™ 555), direct labeled FNR (Alexa Fluor™ 555) and biotinylated ferredoxin were applied to the arrays at 1.0 and 10.0 nM along with direct labeled NISC at 0.001 mg/mL for 1 hr at 37° C. Arrays were washed 3× with PBST and Streptavidin-Alexa Fluor™ 555 was applied to the biotinylated ferredoxin and streptavidin alone arrays. All other arrays received PBST and were incubated for 1 hr at 37° C. Arrays were washed with PBST and p53Ab1-Alexa Fluor™ 647 applied to all arrays to illuminate the edge fiducials for 10 min at 37° C. Following the final incubation arrays were washed in PBST and water, dried and imaged on the ImageXpress ([…]). Triplicate arrays were used for the subsequent analysis except for when rejection of an array was necessary due to the presence of artifacts. Data were analyzed using a custom R script.
Intensities plotted are the log 10 transformed median intensity from replicate arrays. Coloring of the points represents the density of features at that intensity using a gray-scale map. Light grey represents areas of low peptide numbers while black represents the intensity having the highest number of peptides. The diagonal line is equivalence line. […] CLUSTAL sequence alignment (FIG. 27B) of the sequences indicated similarities in amino acid composition. Highlighted amino acids are conserved in over 60% of the peptides for that position or are a chemically similar amino acid (ie: F and Y).
The sequences contain similar amino acid usage. Four peptides having the highest degree of cyclization in the quality control assay were identified and binding intensities compared to other library peptides having one or two amino acid substitutions as shown in FIG. 28. Substitutional analysis provides confidence in the array data by indicating which residues are important for binding. Dark grey boxes highlight indicate a residue conserved in more than 60% of the peptides. Light grey boxes highlight indicate chemically similar amino acids to the conserved residue. RFI is the intensity is the median replicate log 10 intensity for the 10.0 nM Diaphorase.

[2] = test system: Ferredoxin NADP+ Reductase (FNR); assay: FNR counter screen on linear and lactam constrained peptide microarrays; type: binding; conditions: 10.0 nM protein applied to the array; for FNR Lactam, log 10 transformed median intensity: lactam constrained library peptide; for FNR Linear, log 10 transformed median intensity: linear library peptide
Source text: as §1, §2

[3] = test system: Ferredoxin; assay: Biotinylated ferredoxin counter screen on linear and lactam constrained peptide microarrays; type: binding; conditions: 10.0 nM biotinylated protein, detected with Streptavidin-Alexa Fluor 555; for Ferredoxin Lactam, log 10 transformed median intensity: lactam constrained library peptide; for Ferredoxin Linear, log 10 transformed median intensity: linear library peptide
Source text: as §1, §2

[4] = test system: Non-Immunoglobulin Serum Components (NISC); assay: NISC counter screen on linear and lactam constrained peptide microarrays; type: binding, human; conditions: 0.001 mg/mL NISC applied to the array; for NISC Lactam, log 10 transformed median intensity: lactam constrained library peptide; for NISC Linear, log 10 transformed median intensity: linear library peptide
Source text: as §1, §2
Peptides were also selected based on the difference in log 10 transformed intensities between diaphorase and NISC as the counter screen agent (LFGdiaphorase minus LFGNISC). Intensities for 10.0 nM diaphorase and 0.001 mg/mL NISC are shown in FIG. 29A where intensities plotted are the log 10 transformed median intensity from replicate arrays. Coloring of the points represents the density of features at that intensity using a grey colorscale. Light grey represents areas of low peptide numbers while black represents the intensity having the highest number of peptides. The diagonal line is equivalence line. Selectivity vs NISC was not dependent on cyclization as diaphorase also bound the linear forms for some peptides (Table 4). Three peptides having the highest degree of cyclization in the quality control assay were identified and binding intensities compared to other library peptides having one or two amino acid substitutions (FIG. 30) Each CLUSTAL alignment contains the library peptides having a maximum of two substitutions to the parent peptide. Dark grey highlights indicate a residue conserved in more than 60% of the peptides. Light grey highlights indicate chemically similar amino acids to the conserved residue. The amino acid usage is indicated in the sequence logo above the alignment. Substitutional analysis provides confidence in the array data by indicating which residues are important for binding.

[5] = target: Streptavidin (Streptomyces avidinii, UniProt P22629); assay: Streptavidin-Alexa Fluor 555 alone on linear and lactam constrained peptide microarrays; type: binding; conditions: for Streptavidin Lactam, log 10 transformed median intensity: lactam constrained library peptide; for Streptavidin Linear, log 10 transformed median intensity: linear library peptide
Protocol: as §2

Chain of Streptavidin (P22629 25-183, species assumed): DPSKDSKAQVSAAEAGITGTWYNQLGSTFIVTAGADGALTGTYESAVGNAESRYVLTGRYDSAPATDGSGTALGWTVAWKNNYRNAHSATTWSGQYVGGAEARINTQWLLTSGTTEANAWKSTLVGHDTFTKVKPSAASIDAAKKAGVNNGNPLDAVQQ
T1 sequence (P15559 whole entry): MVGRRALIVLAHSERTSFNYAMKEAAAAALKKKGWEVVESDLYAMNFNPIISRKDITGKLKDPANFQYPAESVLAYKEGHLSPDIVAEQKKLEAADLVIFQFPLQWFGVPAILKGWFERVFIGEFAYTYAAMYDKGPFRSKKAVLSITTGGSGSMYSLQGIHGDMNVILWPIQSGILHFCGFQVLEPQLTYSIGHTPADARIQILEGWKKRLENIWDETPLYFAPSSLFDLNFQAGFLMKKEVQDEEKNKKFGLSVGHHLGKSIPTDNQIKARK

| Substance | Diaphorase Lactam, log 10 transformed median intensity [1] | Diaphorase Linear, log 10 transformed median intensity [1] | FNR Lactam, log 10 transformed median intensity [2] | FNR Linear, log 10 transformed median intensity [2] | Ferredoxin Lactam, log 10 transformed median intensity [3] | Ferredoxin Linear, log 10 transformed median intensity [3] | NISC Lactam, log 10 transformed median intensity [4] | NISC Linear, log 10 transformed median intensity [4] | Streptavidin Lactam, log 10 transformed median intensity [5] | Streptavidin Linear, log 10 transformed median intensity [5] |
| --- | --- | --- | --- | --- | --- | --- | --- | --- | --- | --- |
| IGPNPKNN [library array peptide, tested lactam constrained and linear] | 4.34 | 4.22 | 2.54 | 2.57 | 2.56 | 2.59 | 2.65 | 2.78 | 2.52 | 2.52 |
| PFSGQPNS [library array peptide, tested lactam constrained and linear] | 4.38 | 3.70 | 2.58 | 2.58 | 2.59 | 2.59 | 2.67 | 2.63 | 2.57 | 2.56 |
| PGKPNTQ [library array peptide, tested lactam constrained and linear] | 4.36 | 4.15 | 2.54 | 2.7 | 2.55 | 2.63 | 2.68 | 2.84 | 2.51 | 2.53 |
| PNYSSAP [library array peptide, tested lactam constrained and linear] | 4.31 | 3.91 | 2.56 | 2.54 | 2.56 | 2.55 | 2.63 | 2.61 | 2.52 | 2.52 |
| PPYPNQYQ [library array peptide, tested lactam constrained and linear] | 4.39 | 4.04 | 2.55 | 2.56 | 2.58 | 2.58 | 2.69 | 2.69 | 2.53 | 2.53 |
| PPYTYANN [library array peptide, tested lactam constrained and linear] | 4.35 | 4.00 | 2.54 | 2.53 | 2.56 | 2.55 | 2.66 | 2.63 | 2.53 | 2.52 |
| PTSSYLN [library array peptide, tested lactam constrained and linear] | 4.32 | 3.75 | 2.53 | 2.53 | 2.56 | 2.55 | 2.63 | 2.61 | 2.52 | 2.53 |
| PYSNVFQG [library array peptide, tested lactam constrained and linear] | 4.43 | 3.88 | 2.56 | 2.56 | 2.59 | 2.57 | 2.72 | 2.66 | 2.54 | 2.54 |
| QPQSQQSQ [library array peptide, tested lactam constrained and linear] | 4.28 | 3.42 | 2.55 | 2.55 | 2.56 | 2.56 | 2.59 | 2.59 | 2.53 | 2.54 |
| TFGFNGFP [library array peptide, tested lactam constrained and linear] | 4.49 | 2.84 | 2.59 | 2.55 | 2.70 | 2.55 | 3.49 | 2.62 | 2.53 | 2.52 |
| TFSSFAPV [library array peptide, tested lactam constrained and linear] | 4.52 | 2.86 | 2.56 | 2.55 | 2.70 | 2.55 | 3.36 | 2.65 | 2.53 | 2.53 |
| TISYPLTP [library array peptide, tested lactam constrained and linear] | 4.55 | 2.86 | 2.56 | 2.53 | 2.84 | 2.55 | 3.49 | 2.59 | 2.54 | 2.53 |
